# Experimental data: patent US10206886B2, “Lipid nanoparticles for wound healing” (Praxis Biopharma Research Institute, priority 2013, dated 2019)
# Tested on: HUVEC cells (Human Umbilical Vein Endothelial Cells)
# Assay: Proliferation assay with LL37-loaded nanoparticles (CCK-8)
# Assay type: cell-based
# Details: 0.5 and 0.1 μg/ml LL37, after 48 hours, FIG. 6
substance,measurement,value
"free LL37: Cathelicidin antimicrobial peptide LL37, SEQ ID NO 1 (LLGDFFRKSKEKIGKEFKRIVQRIKDFLRNLVPRTES), non-encapsulated",cell proliferation compared with control groups,greater cell proliferation
